Measurements: patent US9783534B2 (priority 2013, dated 2017)
Read-outs that look alike come from different tables or passages of the source.

Legend:
Plasmopara viticola = experiment: Plasmopara test (vine)/protective; format: in vivo; details: protective, 50 g a.i./liter SC formulation, evaluation 6 days after inoculation
Excerpt: To produce a suitable active ingredient preparation, formulations are suspended with water and diluted to the desired concentration. In the present case, both the known amorphous modification of the substance 2-{3-[2-(1-{[3,5-bis(difluoromethyl)-1H-pyrazol-1-yl]acetyl}piperidin-4-yl)-1,3-thiazol-4-yl]-4,5-dihydro-1,2-oxazol-5-yl}-3-chlorophenylmethanesulphonate (form A), as well as the inventive crystalline form of the substance 2-{3-[2-(1-{[3,5-bis(difluoromethyl)-1H-pyrazol-1-yl]acetyl}piperidin-4-yl)-1,3-thiazol-4-yl]-4,5-dihydro-1,2-oxazol-5-yl}-3-chlorophenylmethanesulphonate (form B) are used as 50 g a.i./liter of SC formulation.
To test for protective effectiveness, young plants are sprayed with the active ingredient preparation at the stated application rate. After initial drying of the spray coating, the plants are inoculated with an aqueous spore suspension of Plasmopara viticola and then remain in an incubation cabin for 1 day at approx. 20° C. and 100% relative atmospheric humidity. The plants are then placed in a greenhouse at approx. 21° C. and approx. 90% atmospheric humidity for 4 days. The plants are then moistened and placed in an incubation cabin for 1 day.
Evaluation is carried out 6 days after the inoculation. 0% here means an efficacy which corresponds to that of the control, whereas an efficacy of 100% means that no infection is observed.

Phytophthora infestans = format: in vivo; details: tomato, protective, 50 g a.i./liter SC formulation, evaluation 3 days after inoculation
[1] = Stability of the solid form on storage; format: physicochemical; details: prolonged storage
[2] = application rate 0.05 ppm active ingredient
[3] = application rate 0.1 ppm active ingredient
[4] = application rate 0.2 ppm active ingredient

| SMILES | Efficacy in % (Plasmopara viticola; [2]) [%] | Efficacy in % (Plasmopara viticola; [3]) [%] | Efficacy in % (Plasmopara viticola; [4]) [%] | Efficacy in % (Phytophthora infestans; [2]) [%] | Efficacy in % (Phytophthora infestans; [3]) [%] | Efficacy in % (Phytophthora infestans; [4]) [%] | thermodynamic stability / conversion into another form [1] |
| --- | --- | --- | --- | --- | --- | --- | --- |
| CS(=O)(=O)Oc1cccc(Cl)c1C1CC(c2csc(C3CCN(C(=O)Cn4nc(C(F)F)cc4C(F)F)CC3)n2)=NO1 (single isomer, unassigned) [Form A, 2-{3-[2-(1-{[3,5-bis(difluoromethyl)-1H-pyrazol-1-yl]acetyl}piperidin-4-yl)-1,3-thiazol-4-yl]-4,5-dihydro-1,2-oxazol-5-yl}-3-chlorophenylmethanesulphonate, reference compound] | 0 | 6 | 35 | 0 | 15 | 40 | – |
| CS(=O)(=O)Oc1cccc(Cl)c1C1CC(c2csc(C3CCN(C(=O)Cn4nc(C(F)F)cc4C(F)F)CC3)n2)=NO1 (single isomer, unassigned) [Form B, 2-{3-[2-(1-{[3,5-bis(difluoromethyl)-1H-pyrazol-1-yl]acetyl}piperidin-4-yl)-1,3-thiazol-4-yl]-4,5-dihydro-1,2-oxazol-5-yl}-3-chlorophenylmethanesulphonate] | 0 | 35 | 75 | 40 | 60 | 76 | not converted into another form even on prolonged storage |
